Data: ChEMBL document CHEMBL1201862, “PubChem BioAssay data set” (2004)
Activity calls are given as the source filed them.

Experiments:
Assay type in all cases: functional
[1] = molecular target: T1, Tyrosine-protein phosphatase non-receptor type 11 (Homo sapiens, UniProt Q06124); test: SHP2 phosphatase inhibition, dose response, selectivity assay for STEP inhibitor project, biochemical (AID 602367); conditions: read-out: IC50_Mean
T1 sequence (Q06124 whole entry): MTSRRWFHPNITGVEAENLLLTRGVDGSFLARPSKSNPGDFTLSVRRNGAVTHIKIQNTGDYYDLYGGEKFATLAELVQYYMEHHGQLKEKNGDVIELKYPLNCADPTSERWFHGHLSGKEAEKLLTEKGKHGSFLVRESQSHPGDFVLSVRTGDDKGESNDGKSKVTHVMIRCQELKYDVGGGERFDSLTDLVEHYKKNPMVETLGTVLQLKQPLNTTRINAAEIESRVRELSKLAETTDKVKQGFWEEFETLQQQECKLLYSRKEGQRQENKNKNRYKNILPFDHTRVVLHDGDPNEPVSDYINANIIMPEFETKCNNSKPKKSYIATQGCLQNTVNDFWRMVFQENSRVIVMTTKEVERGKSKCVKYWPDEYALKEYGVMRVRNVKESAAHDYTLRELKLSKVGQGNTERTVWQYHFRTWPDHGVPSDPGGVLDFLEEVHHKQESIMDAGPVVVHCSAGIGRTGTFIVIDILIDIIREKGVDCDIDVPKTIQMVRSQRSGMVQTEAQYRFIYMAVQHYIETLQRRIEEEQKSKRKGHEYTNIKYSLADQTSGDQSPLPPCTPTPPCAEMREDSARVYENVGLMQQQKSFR

[2] = molecular target: T2, Tyrosine-protein phosphatase non-receptor type 5 (Homo sapiens, UniProt P54829); test: STEP phosphatase inhibitors, confirmation, biochemical, fluorescence intensity, uHTS hits (AID 602372); conditions: read-out: IC50_Mean
T2 sequence (P54829 whole entry): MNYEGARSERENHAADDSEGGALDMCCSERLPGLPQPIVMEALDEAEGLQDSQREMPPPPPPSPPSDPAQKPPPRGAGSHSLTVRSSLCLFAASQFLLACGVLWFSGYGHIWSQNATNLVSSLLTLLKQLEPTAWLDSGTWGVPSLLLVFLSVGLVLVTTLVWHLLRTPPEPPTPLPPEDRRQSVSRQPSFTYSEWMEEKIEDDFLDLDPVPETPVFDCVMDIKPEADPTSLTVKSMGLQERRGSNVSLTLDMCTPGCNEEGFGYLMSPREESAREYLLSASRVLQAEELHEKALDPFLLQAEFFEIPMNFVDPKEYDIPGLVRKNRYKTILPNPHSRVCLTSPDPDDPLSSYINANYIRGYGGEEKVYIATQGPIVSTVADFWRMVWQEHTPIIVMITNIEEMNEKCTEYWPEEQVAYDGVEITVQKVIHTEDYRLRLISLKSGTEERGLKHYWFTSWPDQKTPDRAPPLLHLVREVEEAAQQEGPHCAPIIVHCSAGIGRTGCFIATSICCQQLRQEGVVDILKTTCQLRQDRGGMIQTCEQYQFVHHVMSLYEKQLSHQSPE

[3] = molecular target: Dual specificity protein phosphatase 3 (Homo sapiens, UniProt P51452); test: VHR phosphatase inhibition, dose response, selectivity assay for STEP inhibitor project, biochemical (AID 602374); conditions: read-out: IC50_Mean
[4] = molecular target: T3, Low molecular weight phosphotyrosine protein phosphatase (Homo sapiens, UniProt P24666); conditions: read-out: IC50_Mean
T3 sequence (P24666 whole entry): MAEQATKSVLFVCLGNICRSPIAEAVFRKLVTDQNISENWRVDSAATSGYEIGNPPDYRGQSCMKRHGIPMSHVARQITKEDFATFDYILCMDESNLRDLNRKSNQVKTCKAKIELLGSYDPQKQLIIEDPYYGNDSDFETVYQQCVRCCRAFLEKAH

[5] = molecular target: T3, Low molecular weight phosphotyrosine protein phosphatase; conditions: read-out: IC50_Mean; remark: listed apart in the source
[6] = THP-1 cell cytotoxicity, dose response, cytotoxicity control for Vif-APOBEC3G degradation inhibitor project, THP-1 cells (AID 1117359); conditions: Human immunodeficiency virus 1, THP-1
[7] = miR-122 activators in hepatoma reporter cells, dose response, cell-based, Huh7 psiCHECK-miR122, Renilla luciferase, cherry-picked (AID 651956);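 note: huh7 hepatoma cells stably carrying a psiCHECK-2 miR-122 sensor plasmid; renilla luciferase signal reporting endogenous miR-122 activity after 48 h compound exposure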
[8] = molecular target: Induced myeloid leukemia cell differentiation protein Mcl-1 (Homo sapiens, UniProt Q07820)
[9] = HeLa cell cytotoxicity, dose response, cytotoxicity control for MgcRacGAP inhibitor project (AID 624300)
[10] = molecular target: T4, Rac GTPase-activating protein 1 (Homo sapiens, UniProt Q9H0H5); test: MgcRacGAP GTPase-activating activity inhibitors, confirmation, biochemical, ADP Hunter fluorescence, primary and confirmatory (AID 624330)
T4 sequence (Q9H0H5 whole entry): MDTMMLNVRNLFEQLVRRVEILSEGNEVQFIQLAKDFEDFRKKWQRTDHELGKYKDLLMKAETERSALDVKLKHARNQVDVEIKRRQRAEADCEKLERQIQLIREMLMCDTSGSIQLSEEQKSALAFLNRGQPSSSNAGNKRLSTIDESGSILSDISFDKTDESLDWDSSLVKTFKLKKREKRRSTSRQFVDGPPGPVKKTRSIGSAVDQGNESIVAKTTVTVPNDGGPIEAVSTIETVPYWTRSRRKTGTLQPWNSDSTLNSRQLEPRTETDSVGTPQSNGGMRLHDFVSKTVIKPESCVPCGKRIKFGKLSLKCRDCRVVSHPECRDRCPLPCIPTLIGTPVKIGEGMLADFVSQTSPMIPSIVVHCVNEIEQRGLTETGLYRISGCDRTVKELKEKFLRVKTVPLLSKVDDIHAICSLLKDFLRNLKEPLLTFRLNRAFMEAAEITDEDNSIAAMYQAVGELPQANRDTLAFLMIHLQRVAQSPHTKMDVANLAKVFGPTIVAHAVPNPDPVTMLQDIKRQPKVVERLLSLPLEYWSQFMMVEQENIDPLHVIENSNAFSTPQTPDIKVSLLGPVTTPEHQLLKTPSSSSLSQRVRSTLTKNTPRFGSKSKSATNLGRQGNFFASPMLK

[11] = molecular target: T5, Carboxy-terminal domain RNA polymerase II polypeptide A small phosphatase 1 (Homo sapiens, UniProt Q9GZU7); test: inhibitors of CTDSP1, concentration-response testing, biochemical assay, absorbance-based, actives from ultra-high-throughput screening (AID 540297)
T5 sequence (Q9GZU7 whole entry): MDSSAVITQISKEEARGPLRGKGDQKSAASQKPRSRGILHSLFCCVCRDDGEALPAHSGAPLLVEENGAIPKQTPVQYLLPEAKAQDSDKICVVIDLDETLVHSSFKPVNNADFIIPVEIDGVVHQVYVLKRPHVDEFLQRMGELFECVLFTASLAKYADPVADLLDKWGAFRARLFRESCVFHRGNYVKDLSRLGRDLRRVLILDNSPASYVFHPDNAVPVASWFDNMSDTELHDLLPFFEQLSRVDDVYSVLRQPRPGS

Chain of Induced myeloid leukemia cell differentiation protein Mcl-1 (Q07820 whole entry): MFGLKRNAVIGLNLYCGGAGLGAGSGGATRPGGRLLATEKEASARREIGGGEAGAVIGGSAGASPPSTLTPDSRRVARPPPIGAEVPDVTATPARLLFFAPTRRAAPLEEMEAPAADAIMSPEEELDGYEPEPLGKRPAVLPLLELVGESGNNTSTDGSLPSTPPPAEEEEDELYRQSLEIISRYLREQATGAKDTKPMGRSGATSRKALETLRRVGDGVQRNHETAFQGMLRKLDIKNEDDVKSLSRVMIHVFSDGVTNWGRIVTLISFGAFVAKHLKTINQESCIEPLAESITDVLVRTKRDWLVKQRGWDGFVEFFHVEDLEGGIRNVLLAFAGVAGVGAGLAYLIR
Chain of Dual specificity protein phosphatase 3 (P51452 whole entry): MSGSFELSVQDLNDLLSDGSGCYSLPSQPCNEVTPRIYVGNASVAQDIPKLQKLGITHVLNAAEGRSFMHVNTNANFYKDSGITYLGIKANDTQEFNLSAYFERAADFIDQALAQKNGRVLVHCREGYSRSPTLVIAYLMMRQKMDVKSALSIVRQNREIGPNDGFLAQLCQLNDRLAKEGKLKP

In the case of `NN=C1C(Cl)=C(Cl)C(Cl)=C1Cl`, the IC50 [1] is reported as 1.45 µM (active), the IC50 [2] is reported as > 80 µM (inactive) and the IC50 [3] is reported as 1.99 µM (active). The IC50 [4] was 7.19 µM (active), the IC50 [5] was 38.7 µM (inactive) and the CC50 [6] was > 40 µM (active).

For `C[C@@H]1CN([C@H](C)CO)S(=O)(=O)c2ccc(C#CC3(O)CCCC3)cc2O[C@@H]1CN(C)C(=O)c1cccnc1`, the AC50 [7] was 9.98 µM (active).

For `COCC(=O)N(C)C[C@H]1Oc2cc(C#Cc3cccnc3)ccc2S(=O)(=O)N([C@@H](C)CO)C[C@H]1C`, the AC50 [7] was 1.09 µM (active).

For `Clc1cccc(N/N=C/c2ccc(N3CCOCC3)s2)c1`, the IC50 [8] was 13.4 µM (active), the CC50 [9] was 83.7 µM (active) and the IC50 [10] was 71.3 µM (active).

In the case of `O=C(N/N=C/c1ccc(OC(=O)c2ccc3c(c2)OCO3)cc1)c1cncc(Br)c1`, the IC50 [11] is reported as 1.8 µM (active), the IC50 [4] is reported as 6.29 µM (active) and the IC50 [5] is reported as 1.82 µM (active).
